The record followed here is PubChem BioAssay (NCI).

Test systems include A549 NSCLC; NCI-H460 lung; EKVX NSCLC; M14 melanoma; OVCAR-4 ovarian; SN12C renal; SK-MEL-28 melanoma; MOLT-4 leukemia; UO-31 renal; IGROV1 ovarian.
What all share (assay): inhibition of tumour cell growth, NCI panel, 48 h

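1) Cells in 96-well plates. 2) Compound, 48 h, 5 concentrations. 3) Linear interpolation between surrounding doses. 4) Unreached endpoint = highest concentration. GI50 = concentration required for 50% inhibition of growth. The concentration for full growth arrest is given as TGI.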

Take `c1ccc2[nH]c(-c3ccc(Nc4nc(N5CCCCC5)nc(N5CCOCC5)n4)cc3)nc2c1`: the GI50 in the experiment with A549 NSCLC was 3.27 µM; with NCI-H460 lung, 2.44 µM; with EKVX NSCLC, 2.68 µM; in the experiment on M14 melanoma it was 2.05 µM; in the experiment on OVCAR-4 ovarian it was 3.98 µM; in the experiment on SN12C renal, 5.4 µM. The GI50 was 1.8 µM in the experiment on SK-MEL-28 melanoma, 2.73 µM with MOLT-4 leukemia and 2 µM in the experiment on UO-31 renal. For the same compound, the TGI is 13.2 µM in the experiment with A549 NSCLC; 6.18 µM in the experiment on NCI-H460 lung; over 100 µM in the experiment with EKVX NSCLC; 4.72 µM in the experiment on M14 melanoma; 25.4 µM in the experiment on OVCAR-4 ovarian; 53.2 µM in the experiment on SN12C renal. Moreover, the values for the TGI with SK-MEL-28 melanoma, in the experiment with MOLT-4 leukemia and with UO-31 renal were 4.02 µM, 7.89 µM and 5.14 µM, respectively.

On to `CSC(=S)N/N=C/c1nccc2ccccc12`, for which the TGI with A549 NSCLC is 9.87 µM; in the experiment on NCI-H460 lung it was 6.12 µM; in the experiment with EKVX NSCLC, 12.8 µM; in the experiment with M14 melanoma it was 4.87 µM; with OVCAR-4 ovarian, over 100 µM; in the experiment on SN12C renal, 12.7 µM. The TGI was 8.05 µM in the experiment with IGROV1 ovarian, over 79.8 µM in the experiment with SK-MEL-28 melanoma, 3.65 µM in the experiment with MOLT-4 leukemia and 9.4 µM in the experiment on UO-31 renal.

Consider `Cc1ccc(-c2nc3nc(-c4ccc(F)cc4)nc(N4CCCNCC4)c3o2)cc1`, for which the GI50 with NCI-H460 lung was 1.79 µM; in the experiment on EKVX NSCLC, 1.78 µM; in the experiment on M14 melanoma, 1.86 µM; in the experiment on OVCAR-4 ovarian, 1.83 µM; in the experiment with SN12C renal, 1.67 µM; with IGROV1 ovarian, 1.59 µM. Moreover, the GI50 was 1.79 µM with SK-MEL-28 melanoma, 1.62 µM in the experiment with MOLT-4 leukemia and 1.44 µM with UO-31 renal. Further, the TGI in the experiment with NCI-H460 lung came out at 3.53 µM; in the experiment on EKVX NSCLC, 3.34 µM; with M14 melanoma, 3.56 µM; in the experiment on OVCAR-4 ovarian, 3.25 µM; in the experiment with SN12C renal, 3.13 µM; with IGROV1 ovarian, 3.01 µM. Further, the TGI came out at 3.23 µM in the experiment with SK-MEL-28 melanoma, 3.47 µM with MOLT-4 leukemia and 2.79 µM in the experiment with UO-31 renal.

For the compound `Cc1ccc(NC(=O)c2cc(S(=O)(=O)N3C(=O)NC(=O)NS3(=O)=O)c(S)cc2Cl)cc1`, the GI50 in the experiment on A549 NSCLC was 35.1 µM; with NCI-H460 lung, 29.4 µM; with EKVX NSCLC, 29.5 µM; with M14 melanoma it was 24.6 µM; with OVCAR-4 ovarian, 47.6 µM; in the experiment on SN12C renal it was 31.2 µM. Moreover, the GI50 in the experiment with IGROV1 ovarian is 26.1 µM; in the experiment on SK-MEL-28 melanoma it was 34.4 µM; with MOLT-4 leukemia, 15.3 µM; with UO-31 renal, 27.8 µM. The TGI is over 100 µM with A549 NSCLC; over 100 µM in the experiment with NCI-H460 lung; 96.7 µM in the experiment with EKVX NSCLC; 66.8 µM in the experiment on M14 melanoma; over 100 µM in the experiment on OVCAR-4 ovarian; over 100 µM with SN12C renal. In addition, the TGI in the experiment on IGROV1 ovarian was 90.4 µM; in the experiment with SK-MEL-28 melanoma, over 100 µM; in the experiment on MOLT-4 leukemia, 44 µM; with UO-31 renal, over 100 µM.

`CC(C)(Oc1ccc(/C=C/C(=O)c2ccc(Cl)cc2)cc1)C(=O)Nc1c(Cl)cccc1Cl`: the TGI with A549 NSCLC is over 100 µM; with NCI-H460 lung, 98.3 µM; in the experiment with EKVX NSCLC it was over 100 µM; in the experiment with M14 melanoma, 36.7 µM; in the experiment on OVCAR-4 ovarian, over 100 µM; in the experiment with SN12C renal it was 34.8 µM. Besides, the TGI with IGROV1 ovarian was 76.3 µM; in the experiment with SK-MEL-28 melanoma, 30.3 µM; in the experiment with MOLT-4 leukemia, 96.5 µM; in the experiment on UO-31 renal, 54.2 µM.

For `CC(C)CCC1(CCN)C(=O)NC(=O)NC1=O`, the TGI in the experiment with A549 NSCLC, in the experiment on NCI-H460 lung, with EKVX NSCLC, in the experiment on M14 melanoma, in the experiment with OVCAR-4 ovarian and in the experiment on SN12C renal was over 100 µM each time. For the same compound, the TGI is over 100 µM with IGROV1 ovarian, over 100 µM with SK-MEL-28 melanoma, 72.2 µM with MOLT-4 leukemia and over 100 µM with UO-31 renal.

Turning to `CN1/C(=C\C=C\C2=[N+](C)c3ccccc3C2(C)C)C(C)(C)c2ccccc21`, the GI50 in the experiment on A549 NSCLC is 0.0413 µM; with NCI-H460 lung it was 0.0541 µM; in the experiment with EKVX NSCLC, 0.0297 µM; in the experiment on M14 melanoma it was 0.223 µM; with OVCAR-4 ovarian, 0.0922 µM; in the experiment on SN12C renal, 0.155 µM. The GI50 in the experiment on IGROV1 ovarian was 0.116 µM; in the experiment on SK-MEL-28 melanoma, 0.412 µM; with MOLT-4 leukemia, 0.146 µM; in the experiment on UO-31 renal, 0.229 µM. The TGI in the experiment on A549 NSCLC stood at 13.5 µM; with NCI-H460 lung, 0.922 µM; with EKVX NSCLC it was 7.3 µM; with M14 melanoma it was 1.31 µM; in the experiment on OVCAR-4 ovarian, 5.21 µM; with SN12C renal, 1.11 µM. For the same compound, the TGI with IGROV1 ovarian stood at 1.74 µM; in the experiment on SK-MEL-28 melanoma, 2.84 µM; with MOLT-4 leukemia, 1.87 µM; in the experiment with UO-31 renal it was 3.23 µM.

In the case of `O=[N+]([O-])c1ccc(-c2ccc(-c3csc(Nc4ccccc4)n3)o2)cc1`, the TGI in the experiment on A549 NSCLC is over 100 µM; with NCI-H460 lung, over 67 µM; in the experiment with EKVX NSCLC, 33.5 µM; in the experiment on M14 melanoma, 38 µM; in the experiment on OVCAR-4 ovarian, 32 µM; in the experiment with SN12C renal, 33 µM. Further, the TGI in the experiment with IGROV1 ovarian was over 63.9 µM; in the experiment on SK-MEL-28 melanoma, 32.2 µM; with MOLT-4 leukemia it was 46.2 µM; in the experiment with UO-31 renal, 39 µM.

Consider `O=[N+]([O-])c1ccc(Sc2c3ccccc3nc3cc(Cl)ccc23)cc1`, for which the GI50 in the experiment on A549 NSCLC, in the experiment with NCI-H460 lung, in the experiment on EKVX NSCLC, in the experiment with M14 melanoma, with OVCAR-4 ovarian and in the experiment with SN12C renal was over 100 µM in each case. Moreover, the GI50 in the experiment on IGROV1 ovarian, in the experiment with SK-MEL-28 melanoma and with UO-31 renal was over 100 µM each time. The TGI with A549 NSCLC, with NCI-H460 lung, in the experiment on EKVX NSCLC, in the experiment on M14 melanoma, with OVCAR-4 ovarian and in the experiment on SN12C renal was over 100 µM throughout. In addition, the TGI in the experiment on IGROV1 ovarian, with SK-MEL-28 melanoma, with MOLT-4 leukemia and with UO-31 renal was over 100 µM each time.
